Assay [1] concerns the target T1, mitochondrial GPDH (Rattus norvegicus, UniProt P35571).
T1 construct: The activity of GPDH in intact mitochondria (0.3 mg/mL) was measured; from tissue; host or cells: rat skeletal muscle mitochondria (Wistar, Harlan Laboratories)
T1 sequence (P35571 43-727): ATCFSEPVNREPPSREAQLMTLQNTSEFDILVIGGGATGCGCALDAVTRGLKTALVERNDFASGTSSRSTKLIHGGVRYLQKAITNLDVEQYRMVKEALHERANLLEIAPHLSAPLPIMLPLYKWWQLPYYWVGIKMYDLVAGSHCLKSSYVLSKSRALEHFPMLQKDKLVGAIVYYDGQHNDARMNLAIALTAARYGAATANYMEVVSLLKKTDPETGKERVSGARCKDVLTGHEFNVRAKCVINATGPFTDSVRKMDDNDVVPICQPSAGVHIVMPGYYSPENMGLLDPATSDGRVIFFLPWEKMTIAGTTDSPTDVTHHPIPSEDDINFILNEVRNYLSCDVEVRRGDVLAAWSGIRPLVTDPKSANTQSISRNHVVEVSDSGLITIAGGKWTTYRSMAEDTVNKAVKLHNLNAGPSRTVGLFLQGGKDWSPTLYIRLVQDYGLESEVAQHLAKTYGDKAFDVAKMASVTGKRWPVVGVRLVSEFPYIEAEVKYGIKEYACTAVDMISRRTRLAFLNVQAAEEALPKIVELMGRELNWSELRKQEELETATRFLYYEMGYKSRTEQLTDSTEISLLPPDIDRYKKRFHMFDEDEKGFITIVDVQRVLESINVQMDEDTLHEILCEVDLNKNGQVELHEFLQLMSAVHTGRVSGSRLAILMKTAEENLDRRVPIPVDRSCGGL
The assay can be described thus: Mitochondrial GPDH activity (DCPIP reduction). The assay is classed as biochemical.

The target in assay [2] is T2, site IF (Rattus norvegicus, UniProt Q5XIH3).
T2 construct: freshly isolated muscle mitochondria were assayed; from tissue; host or cells: rat skeletal muscle mitochondria (Wistar, Harlan Laboratories)
T2 sequence (Q5XIH3 21-464 limits assumed): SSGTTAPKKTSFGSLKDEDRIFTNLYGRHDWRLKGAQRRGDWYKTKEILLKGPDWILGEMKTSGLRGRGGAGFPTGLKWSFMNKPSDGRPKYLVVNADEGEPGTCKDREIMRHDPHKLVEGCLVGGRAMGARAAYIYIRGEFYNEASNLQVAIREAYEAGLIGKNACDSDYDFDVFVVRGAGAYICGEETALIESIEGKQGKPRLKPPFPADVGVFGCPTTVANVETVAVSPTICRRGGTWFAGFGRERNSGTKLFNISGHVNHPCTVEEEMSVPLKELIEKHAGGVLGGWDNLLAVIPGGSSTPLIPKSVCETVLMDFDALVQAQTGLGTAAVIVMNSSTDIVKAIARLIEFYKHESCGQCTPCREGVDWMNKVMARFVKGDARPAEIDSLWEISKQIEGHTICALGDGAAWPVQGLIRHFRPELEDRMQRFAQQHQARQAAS
The assay can be described thus: Relationship of site IF ROS production to steady state matrix NAD(P)H reduction. Type of assay: biochemical. Conditions: high NADH reduction (>90%). How it is done:
The rate of ROS production from site IF is linked to the reduction state of the NAD(P)H pool in the mitochondrial matrix (Treberg et al., 2011; Quinlan et al, submitted). Therefore, to evaluate the mechanism of action of putative IF ROS inhibitors, the effect of candidate compounds on the relationship between site IF ROS production and NAD(P)H reduction was tested.

Assay [3] concerns complex I. Briefly: Rate of NAD(P)H reduction via complex I versus observed ROS production. Type of assay: biochemical, rat. Conditions: 2.5 uM; succinate with low glutamate; FIG. 2B.
Protocol: To compare candidate IQ ROS inhibitors with mitochondrial inhibitors known to disrupt complex I activity (e.g. rotenone) or oxidize the electron transport chain (e.g. the uncoupler FCCP), the rate of NAD(P)H reduction via complex I was measured when isolated mitochondria were provided with saturating concentrations of the complex II substrate succinate (5 mM) and subsaturating levels of glutamate (1 mM) to facilitate full activation of complex II by oxaloacetate removal. […] These conditions allow electron and proton fluxes through complex Ito reverse and be directed predominantly toward the matrix. Addition of succinate causes a rapid increase in the reduction state of the matrix NAD(P)H pool that can be monitored as described above. The rate of NAD(P)H reduction is therefore a measure of electron flux through complex I for which direct comparisons can be made under identical conditions to effects on rates of ROS production.
Assay [4] has as its system site IQ. Briefly: ROS production with NADH and cytochrome b566 reduction states, mitochondria respiring on CI substrates. The assay is classed as biochemical, rat. Conditions: 2.5 uM, ATP synthesis restricted. An excerpt: The contribution of site IQ to total ROS production under “normal” circumstances (e.g. when electrons enter CI primarily in the forward direction) remains contentious. […] A possible explanation for this difference is the leak of electrons from site IQ as both Q-pool reduction and PMF remained high in the absence of energy production. To test if site IQ is indeed active under such conditions, we used Compound No. 4 to non-invasively probe mitochondrial ROS production in this system. […] It is believed that even under extreme conditions in which forward electron flow through CI dominates, this provides evidence that site IQ can be a relevant source of ROS.
The rate of ROS production from site IF is linked to the reduction state of the NAD(P)H pool in the mitochondrial matrix (Treberg et al., 2011; Quinlan et al, submitted). Therefore, to evaluate the mechanism of action of putative IF ROS inhibitors, the effect of candidate compounds on the relationship between site IF ROS production and NAD(P)H reduction was tested. NAD(P)H reduction was monitored in isolated mitochondria (0.3 mg/mL) on a Varian Cary Eclipse fluorimeter (ex 365/em 450 nm) as described by Treberg et al., 2011 except the reduction state was slowly titrated with increasing rotenone (0.08 to 4 uM) in the presence of saturating malate (5 mM) and the uncoupler FCCP. Glutamate (5 mM) was added to achieve 100% reduction. […]

From US20140128352A1, “COMPOUNDS AND METHODS FOR MODULATING MITOCHONDRIAL METABOLISM AND REACTIVE OXYGEN SPECIES PRODUCTION” (Buck Institute for Research on Aging, priority 2012, published 2014) come the findings set out here.

Each structure is given as a SMILES string. Entries after “also recorded” stand apart in the source; their conditions may differ.

Turning to `O=C(O)CCC(=O)Nc1ccc(-c2nc3cc4ccccc4cc3[nH]2)cc1` [Compound 61], in assay [1], the “kinetics of inhibition of GPDH activity” value was “mixed inhibition kinetics” and the “potency at inhibiting GPDH activity relative to Compound No. 46” value was “at least 6 times”. As to `Cc1ccc(C)c(CN(CCCN(C)C)CCCN(C)C)c1` [Compound 32], the “ROS production from site IF in relation to NADH reduction” value in assay [2] is “lowers the amount of ROS production from site IF as the matrix NADH pool becomes strongly reduced; also recorded: the expected ROS production was suppressed”.

`O=[N+]([O-])c1ccc(Oc2ccc(S(=O)(=O)NC3CCCCC3)cc2)cc1` [Compound 4]: the “suppression of observed ROS before any sign of altered flux through CI to NADH” value in assay [3] was “at least 45%”. The “observed ROS production and NADH / b566 reduction states” value in assay [4] is “lowered the observed ROS production without any changes to the NADH or b566 reduction states”.
